From patent US20240293430A1, “WITHAFERIN A AND IMMUNE CHECKPOINT BLOCKER COMBINATION THERAPIES” (University of South Florida, priority 2023, published 2024)

Key:
[1] = system: NSCLC cell lines (LLC, H1650 and A549); assay: Cell Titer-Glo cell viability assay; format: cell-based, mouse (LLC), human (H1650; conditions: 48 h, range over LLC
Description: FIGS. 1A-lE depict that WFA induces ER stress-mediated apoptosis in NSCLC cell lines. (FIG. 1A) NSCLC cells were plated on 96-well plates and treated with different concentrations of WFA ([…]) in triplicates. Forty-eight hours post-treatment, cell viability was determined using Cell Titer-Glo assay. Luminescence values were normalized to control untreated cells and IC50 values are represented as the mean of two independent experiments ±SEM. (FIG. 1B) NSCLC cells were treated WFA for forty-eight hours, then collected to measure apoptotic cell death using Annexin V assay in LLC cells, H1650 cells, and A549 cells. Percentages of early (annexin*DAPI-) and late (annexin*DAPI+) apoptotic cells are represented as means of two separate experiments ±SEM and statistical significance was calculated using one-way ANOVA and a Fisher LSD post hoc test was used to compare the mean of each group to that of the control group. […] The quantification of western blot band density was performed using Image J software v.1.54d and normalized to housekeeping control protein in LLC cells (0-actin). […]
LLC, H1650, or A549 was plated in 96-well plates and treated with WFA (serialdilutions 10-0.078 μM) in triplicates. […] Forty-eight hours after treatment, cell viability was determined using Cell Titer-Glo assay (Promega, Madison, WI, USA) according to the manufacturer's instructions. […]

[2] = system: apoptotic marker transcripts in NSCLC cell lines; assay: qRT-PCR of pro- and anti-apoptotic transcripts; format: cell-based, mouse (LLC), human (H1650, A549)
Description: FIGS. 1A-lE depict that WFA induces ER stress-mediated apoptosis in NSCLC cell lines. (FIG. 1A) NSCLC cells were plated on 96-well plates and treated with different concentrations of WFA ([…]) in triplicates. Forty-eight hours post-treatment, cell viability was determined using Cell Titer-Glo assay. Luminescence values were normalized to control untreated cells and IC50 values are represented as the mean of two independent experiments ±SEM. (FIG. 1B) NSCLC cells were treated WFA for forty-eight hours, then collected to measure apoptotic cell death using Annexin V assay in LLC cells, H1650 cells, and A549 cells. Percentages of early (annexin*DAPI-) and late (annexin*DAPI+) apoptotic cells are represented as means of two separate experiments ±SEM and statistical significance was calculated using one-way ANOVA and a Fisher LSD post hoc test was used to compare the mean of each group to that of the control group. (FIGS. 1C-1D) WFA treated cells were collected in Trizol and total RNA was isolated to measure the levels of Bax (FIG. 1C) and Bcl2 (FIG. 1D) mRNA using qRT-PCR. PCR experiments were repeated at least twice, and one representative experiment is shown as mean±SEM of the technical replicates. (FIG. 1E) Western blot of ER stress markers p-eIF-2 and CHOP was performed using total lysates of WFA-treated LLC cells. The quantification of western blot band density was performed using Image J software v.1.54d and normalized to housekeeping control protein in LLC cells (0-actin). […] Data were obtained from two independent experiments.
FIGS. 7A-7I depict qRT-PCR analysis of the change in expression of pro-apoptotic and anti-apoptotic induced by WFA treatment. WFA increased the mRNA levels of proapoptotic protein Bak-1 in (FIG. 7A) LLC cells and BAD in (FIG. 7C) H1650 cells. […] PCR was repeated twice, and one representative experiment is shown as mean±SEM of 3 technical replicates. […] (FIGS. 7G-7I) Western blots.
Total cellular RNA was isolated from collected cell pellets using TRIzol reagent (Invitrogen, Waltham, MA, USA) and then quantified using the 2000 Nanodrop spectrophotometer (Thermo Fisher Scientific, Waltham, MA, USA). cDNA synthesis was performed using the Verso cDNA synthesis kit (Thermo Fisher Scientific, Waltham, MA, USA). qPCR was then performed using Forget-Me-Not EvaGreen qPCR Master Mix (Biotium, Fremont, CA, USA) in a Bio-Rad CFX384 thermocycler according to the manufacturer's instructions. The CFX Maestro software version 2.3 (Bio-Rad, Hercules, CA, USA) was used to calculate the ΔCt and ΔΔCt values and gene expression was normalized to housekeeping genes glyceraldehyde 3-phosphate dehydrogenase (GAPDH) or β-actin. The sequences of PCR primers used are listed in Table 2 (Integrated DNA Technologies, Inc, Coralville, IA, USA).

[3] = system: PD-L1 expression in MC38, HCT116 colon cancer cell lines; assay: PD-L1 expression in colon cancer cell lines; format: cell-based, mouse (MC38), human (HCT116)
Description: FIGS. 8A-8G depict that WFA induced ICD and PD-L1 upregulation in colorectal cancer cell lines. WFA increased the levels of ecto-CRT in the murine colorectal cancer cell line (FIG. 8A) MC-38 and human cell line (FIG. 8B) HCT-116. WFA increased the expression of PD-L1 in both (FIG. 8C) MC-38 and (FIG. 8D) HCT-116 cells. […] H1650 cells (at a higher density) were treated with a higher concentration of WFA (2 and 4 μM) to facilitate cell collection and protein isolation. The band density was quantified using Image J software and normalized to the housekeeping protein. The fold change from untreated control was averaged from two independent experiments ±SEM and one-way ANOVA was used to calculate the statistical significance. A Fisher LSD post hoc test was performed to compare the treatments to the control in (FIG. 8E) LLC, (FIG. 8F) H1650, (FIG. 8G) A549 cells. * p<0.05, ** p<0.01, *** p<0.001, **** p<0.0001.
In vitro WFA-treated or control cells were collected using Accutase cell detachment solution and stained with FACS-diluted (PBS, 10% FBS, 2 mMEDTA) pre-titrated fluorophore conjugated or primary unconjugated antibody solutions (Table 1) for 30 min on ice in the dark. […]

[4] = system: WI-38 lung fibroblasts and PBMCs; conditions: at WFA concentrations toxic to A549 NSCLC cells; cited from earlier work

IC50 [1]: 0.5 to 1.5 µM
Compound: CC1=C(CO)C(=O)O[C@@H]([C@@H](C)[C@H]2CC[C@H]3[C@@H]4C[C@H]5O[C@]56[C@@H](O)C=CC(=O)[C@]6(C)[C@H]4CC[C@]23C)C1 [WFA, Withaferin A]
Bax transcripts [2]: increased
Bcl-2 transcripts [2]: reduced
BAD transcripts ([2]; H1650 cells): increased
Survivin transcripts ([2]; LLC and A549): reduced
Xiap transcripts ([2]; LLC and A549): reduced
Bak-1 transcripts ([2]; LLC cells): increased
PD-L1 expression [3]: increased
viability of normal cells [4]: remain viable
